{
  "source": "BindingDB's records for patent US11185537",
  "about": "(Novartis, 2021)",
  "key": {"[1]": {"molecular_target": "Zinc finger protein Helios (Homo sapiens, UniProt Q9UKS7)", "sequence (Q9UKS7 whole entry)": "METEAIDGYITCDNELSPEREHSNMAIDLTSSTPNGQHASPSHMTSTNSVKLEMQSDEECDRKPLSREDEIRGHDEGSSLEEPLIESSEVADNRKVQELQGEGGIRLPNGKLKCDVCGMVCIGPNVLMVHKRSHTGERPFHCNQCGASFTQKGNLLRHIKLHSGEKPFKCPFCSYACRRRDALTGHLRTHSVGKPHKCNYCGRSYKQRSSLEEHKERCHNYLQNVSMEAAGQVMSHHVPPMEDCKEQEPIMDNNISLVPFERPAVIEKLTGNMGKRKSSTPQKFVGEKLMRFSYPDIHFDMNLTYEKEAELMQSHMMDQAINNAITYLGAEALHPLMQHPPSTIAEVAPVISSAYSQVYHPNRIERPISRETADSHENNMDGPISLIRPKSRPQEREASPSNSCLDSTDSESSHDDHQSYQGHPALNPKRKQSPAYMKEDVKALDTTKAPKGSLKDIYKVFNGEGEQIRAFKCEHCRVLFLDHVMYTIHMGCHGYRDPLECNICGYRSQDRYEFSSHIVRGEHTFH"}, "[2]": {"molecular_target": "DNA-binding protein Ikaros (Human, UniProt Q13422)", "sequence (Q13422 whole entry)": "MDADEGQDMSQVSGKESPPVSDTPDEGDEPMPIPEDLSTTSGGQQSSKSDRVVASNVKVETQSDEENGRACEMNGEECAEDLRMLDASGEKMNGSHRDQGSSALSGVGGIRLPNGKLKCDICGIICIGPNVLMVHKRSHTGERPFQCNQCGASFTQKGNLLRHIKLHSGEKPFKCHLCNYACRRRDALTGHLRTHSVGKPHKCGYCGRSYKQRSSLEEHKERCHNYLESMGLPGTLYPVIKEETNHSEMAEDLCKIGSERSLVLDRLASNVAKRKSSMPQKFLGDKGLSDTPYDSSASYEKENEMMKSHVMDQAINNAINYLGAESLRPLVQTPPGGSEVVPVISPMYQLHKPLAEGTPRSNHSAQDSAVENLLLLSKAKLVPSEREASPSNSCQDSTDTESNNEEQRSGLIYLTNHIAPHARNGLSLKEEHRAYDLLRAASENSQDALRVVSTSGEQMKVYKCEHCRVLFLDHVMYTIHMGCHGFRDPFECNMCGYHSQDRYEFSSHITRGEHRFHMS"}},
  "data": [
    {"smiles": "CN[C@H]1CC=CC[C@@H]1N(C)c1ccc2c(c1)CN(C1CCC(=O)NC1=O)C2=O", "note": "(some centres not stated) [US11185537, Compound Mix]", "values": [
      {"measurement": "EC50", "setting": "[1]", "value": 230, "unit": "nM"},
      {"measurement": "EC50", "setting": "[2]", "value": 120, "unit": "nM"}
    ]}
  ]
}
